Experimental data as given in the supplement of paper PMC10307832.

Tests used:
Experiment in all cases: relative viability (nuclei count vs DMSO), 5 days (fraction); higher = more cells survive
[1] = system: EMC-BAC-2
Method in brief: (§1)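 Each reported value is a median over duplicate plates. It expresses relative viability: treated-well nuclei count divided by vehicle-well nuclei count. Lung cancer cell lines in 1536-well plates were dosed by pin tool a day after seeding, alone with one drug or with a fixed anchor-drug dose plus five library-drug doses (not always all listed) in √10 steps, and nuclei were counted after 5 days.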

[2] = system: COR-L23
Method in brief: as §1

[3] = system: NCI-H1993
Method in brief: as §1

[4] = system: ABC-1
Method in brief: as §1

[5] = system: NCI-H1395
Method in brief: as §1

[6] = system: NCI-H358
Method in brief: as §1

[7] = system: HARA
Method in brief: as §1

[8] = system: LC-2-ad
Method in brief: as §1

[9] = system: ChaGo-K-1
Method in brief: as §1

[10] = system: NCI-H1944
Method in brief: as §1

[11] = system: NCI-H838
Method in brief: as §1

[12] = system: SK-LU-1
Method in brief: as §1

[13] = system: NCI-H1793
Method in brief: as §1

[14] = system: NCI-H2023
Method in brief: as §1

[15] = system: NCI-H2126
Method in brief: as §1

[16] = system: HCC-15
Method in brief: as §1

[17] = system: NCI-H23
Method in brief: as §1

[18] = system: NCI-H2405
Method in brief: as §1

[19] = system: HCC-78
Method in brief: as §1

[20] = system: HOP-62
Method in brief: as §1

[21] = system: HCC-366
Method in brief: as §1

O=c1cc(N2CCOCC2)oc2c(-c3cccc4c3sc3ccccc34)cccc12 + Nc1ncn([C@H]2C[C@H](O)[C@@H](CO)O2)c(=O)n1 [Decitabine] (partner 2 µM)
relative viability ([1]; first compound 0.01 µM): 1.05
relative viability ([1]; first compound 0.03162 µM): 1.02
relative viability ([1]; first compound 0.1 µM): 1.01
relative viability ([1]; first compound 0.3162 µM): 0.93
relative viability ([1]; first compound 1 µM): 0.95
relative viability ([2]; first compound 0.01 µM): 0.515
relative viability ([2]; first compound 0.03162 µM): 0.434
relative viability ([2]; first compound 0.1 µM): 0.475
relative viability ([2]; first compound 0.3162 µM): 0.467
relative viability ([2]; first compound 1 µM): 0.504
relative viability ([3]; first compound 0.01 µM): 0.731
relative viability ([3]; first compound 0.03162 µM): 0.639
relative viability ([3]; first compound 0.1 µM): 0.569
relative viability ([3]; first compound 0.3162 µM): 0.575
relative viability ([3]; first compound 1 µM): 0.585
relative viability ([4]; first compound 0.01 µM): 1.01
relative viability ([4]; first compound 0.03162 µM): 1.15
relative viability ([4]; first compound 0.1 µM): 1.31
relative viability ([4]; first compound 0.3162 µM): 0.959
relative viability ([4]; first compound 1 µM): 1.09
relative viability ([5]; first compound 0.03162 µM): 0.772
relative viability ([5]; first compound 0.1 µM): 0.656
relative viability ([5]; first compound 0.3162 µM): 0.701
relative viability ([5]; first compound 1 µM): 0.692
relative viability ([6]; first compound 0.01 µM): 0.222
relative viability ([6]; first compound 0.03162 µM): 0.218
relative viability ([6]; first compound 0.1 µM): 0.218
relative viability ([6]; first compound 0.3162 µM): 0.21
relative viability ([6]; first compound 1 µM): 0.193
relative viability ([7]; first compound 0.01 µM): 0.536
relative viability ([7]; first compound 0.03162 µM): 0.466
relative viability ([7]; first compound 0.1 µM): 0.617
relative viability ([7]; first compound 0.3162 µM): 0.481
relative viability ([7]; first compound 1 µM): 0.476
relative viability ([8]; first compound 0.01 µM): 0.736
relative viability ([8]; first compound 0.03162 µM): 0.801
relative viability ([8]; first compound 0.1 µM): 0.79
relative viability ([8]; first compound 0.3162 µM): 0.822
relative viability ([8]; first compound 1 µM): 0.893
relative viability ([9]; first compound 0.01 µM): 0.524
relative viability ([9]; first compound 0.03162 µM): 0.539
relative viability ([9]; first compound 0.1 µM): 0.532
relative viability ([9]; first compound 0.3162 µM): 0.57
relative viability ([9]; first compound 1 µM): 0.546
relative viability ([10]; first compound 0.01 µM): 0.488
relative viability ([10]; first compound 0.03162 µM): 0.448
relative viability ([10]; first compound 0.1 µM): 0.443
relative viability ([10]; first compound 0.3162 µM): 0.408
relative viability ([10]; first compound 1 µM): 0.481
relative viability ([11]; first compound 0.01 µM): 0.481
relative viability ([11]; first compound 0.03162 µM): 0.49
relative viability ([11]; first compound 0.1 µM): 0.479
relative viability ([11]; first compound 0.3162 µM): 0.482
relative viability ([11]; first compound 1 µM): 0.478
relative viability ([12]; first compound 0.01 µM): 0.641
relative viability ([12]; first compound 0.03162 µM): 0.621
relative viability ([12]; first compound 0.1 µM): 0.596
relative viability ([12]; first compound 0.3162 µM): 0.621
relative viability ([12]; first compound 1 µM): 0.661
relative viability ([13]; first compound 0.01 µM): 0.503
relative viability ([13]; first compound 0.03162 µM): 0.502
relative viability ([13]; first compound 0.1 µM): 0.564
relative viability ([13]; first compound 0.3162 µM): 0.54
relative viability ([13]; first compound 1 µM): 0.443
relative viability ([14]; first compound 0.01 µM): 0.252
relative viability ([14]; first compound 0.03162 µM): 0.224
relative viability ([14]; first compound 0.1 µM): 0.248
relative viability ([14]; first compound 0.3162 µM): 0.251
relative viability ([14]; first compound 1 µM): 0.232
relative viability ([15]; first compound 0.01 µM): 0.558
relative viability ([15]; first compound 0.03162 µM): 0.609
relative viability ([15]; first compound 0.1 µM): 0.601
relative viability ([15]; first compound 0.3162 µM): 0.559
relative viability ([15]; first compound 1 µM): 0.569
relative viability ([16]; first compound 0.01 µM): 0.632
relative viability ([16]; first compound 0.03162 µM): 0.639
relative viability ([16]; first compound 0.1 µM): 0.774
relative viability ([16]; first compound 0.3162 µM): 0.59
relative viability ([16]; first compound 1 µM): 0.724
relative viability ([17]; first compound 0.01 µM): 0.288
relative viability ([17]; first compound 0.03162 µM): 0.322
relative viability ([17]; first compound 0.3162 µM): 0.326
relative viability ([17]; first compound 1 µM): 0.307
relative viability ([18]; first compound 0.01 µM): 0.82
relative viability ([18]; first compound 0.03162 µM): 0.715
relative viability ([18]; first compound 0.1 µM): 0.812
relative viability ([18]; first compound 0.3162 µM): 0.76
relative viability ([18]; first compound 1 µM): 0.788
relative viability ([19]; first compound 0.01 µM): 0.611
relative viability ([19]; first compound 0.03162 µM): 0.716
relative viability ([19]; first compound 0.1 µM): 0.544
relative viability ([19]; first compound 0.3162 µM): 0.652
relative viability ([19]; first compound 1 µM): 0.692
relative viability ([20]; first compound 0.01 µM): 0.228
relative viability ([20]; first compound 0.03162 µM): 0.227
relative viability ([20]; first compound 0.1 µM): 0.236
relative viability ([20]; first compound 0.3162 µM): 0.249
relative viability ([20]; first compound 1 µM): 0.196
relative viability ([21]; first compound 0.01 µM): 0.331
relative viability ([21]; first compound 0.03162 µM): 0.365
relative viability ([21]; first compound 0.1 µM): 0.413
relative viability ([21]; first compound 0.3162 µM): 0.348
relative viability ([21]; first compound 1 µM): 0.296
